Results taken from patent US11827628B2, “Compositions and methods for inhibition of the JAK pathway” (Rigel Pharmaceuticals, Inc., priority 2005, dated 2023).
Like-named read-outs stand apart in the source and are kept apart here. Values belong to the compound of their own block, whether it stands above or below them.

Experiments:
[1] = tested on: IL-4 stimulated expression of CD23 in human Ramos B cells (JAK-1 and JAK-3); test: Assay for Ramos B-Cell Line Stimulated with IL-4 (CD23 upregulation, FACS); assay type: cell-based; conditions: read-out: IC50, Example 41
Summary of the method: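 Read-out: anti-CD23-PE flow cytometry on Ramos B cells, giving IC50. Cells (5×10^4 per point, RPMI + 5% serum) get compound or DMSO for 1 h at 37 °C, then IL-4 50 units/mL final for 20-24 h.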

Primary human T-cells = test: Primary Human T-Cell Proliferation Assay Stimulated with IL-2 (CellTiter-Glo); assay type: cell-based; conditions: read-out: IC50, Example 42
Summary of the method: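 IC50 derived from CellTiter-Glo ATP signal after 72 hours of IL-2-driven proliferation at 37° C. Cells: primary human T-cells from blood, stimulated beforehand 3-4 days on anti-CD3/anti-CD28 with IL-2, then rested from IL-2 before compound exposure in duplicate; IL-2-free wells served as unstimulated control.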

[2] = Homo sapiens, Ramos, Ramos B-cell line stimulated with IL-4, CD23 expression by FACS
[3] = Homo sapiens, T-cell, primary human T-cell proliferation stimulated with IL-2
[4] = Ramos B-cell line stimulated with IL-4, CD23 expression by FACS
[5] = primary human T-cell proliferation stimulated with IL-2
[6] = Ramos B cells stimulated with IL-4, CD23 expression by FACS
[7] = primary human T-cells stimulated with IL-2, proliferation
[8] = Homo sapiens, Ramos, Ramos B cells stimulated with IL-4, CD23 expression by FACS
[9] = Homo sapiens, T-cell, primary human T-cells stimulated with IL-2, proliferation

Compound: COC(=O)c1ccc(Nc2nc(Nc3ccc(C)c(S(N)(=O)=O)c3)ncc2F)s1 [IX-46, N2-(3-Aminosulfonyl-4-methylphenyl)-5-fluoro-N4-(5-methoxycarbonyl-thiophene-2-yl)-2,4-pyrimidinediamine]
- IC50 [1, 8]: 73.9 nM
- IC50 (Primary human T-cells; [9]): 1390 nM

Compound: CNC(=O)COc1ccc(Nc2nc(Nc3ccc(C)c(S(N)(=O)=O)c3)ncc2F)cc1 [Compound I-145, N2-(3-Aminosulfonyl-4-methylphenyl)-5-fluoro-N4-(4-methylaminocarbonylmethoxyphenyl)-2,4-pyrimidinediamine]
- IC50 [1, 2]: 542 nM
- IC50 (Primary human T-cells; [3]): 349 nM

Compound: C=CCNC(=O)COc1ccc(Nc2nc(Nc3ccc(S(N)(=O)=O)cc3)ncc2F)cc1 [Compound I-157, N4-(4-Allylaminocarbonylmethoxyphenyl)-N2-(4-aminosulfonylphenyl)-5-fluoro-2,4-pyrimidinediamine]
- IC50 [1, 2]: 246 nM
- IC50 (Primary human T-cells; [3]): 1890 nM

Compound: N#CCOc1ccc(Nc2nc(Nc3ccc(S(N)(=O)=O)cc3)ncc2F)cc1 [Compound I-16, N2-(4-Aminosulfonyl)phenyl-N4-(4-cyanomethoxy)phenyl-5-fluoro-2,4-pyrimidinediamine]
- IC50 [1, 4]: 124 nM
- IC50 (Primary human T-cells; [5]): 436 nM

Compound: N#Cc1cc2cc(Nc3nc(Nc4ccc(Cl)c(S(N)(=O)=O)c4)ncc3F)ccc2o1 [IX-21]
- IC50 [1, 6]: 271 nM
- IC50 (Primary human T-cells; [7]): 2740 nM

Compound: CNC(=O)COc1ccc(Nc2nc(Nc3ccc(C)c(S(N)(=O)=O)c3)ncc2C)cc1Cl [Compound I-151, N2-(3-Aminosulfonyl-4-methylphenyl)-N4-(3-chloro-4-methylaminocarbonylmethoxyphenyl)-5-methyl-2,4-pyrimidinediamine]
- IC50 [1, 2]: 61.9 nM
- IC50 (Primary human T-cells; [3]): 78.3 nM

Compound: N#CCOc1cccc(Nc2nc(Nc3ccc(S(N)(=O)=O)cc3)ncc2F)c1 [Compound I-3, N2-(4-Aminosulfonyl)phenyl-N4-(3-cyanomethoxy)phenyl-5-fluoro-2,4-pyrimidinediamine]
- IC50 [1, 4]: 107 nM
- IC50 (Primary human T-cells; [5]): 987 nM

Compound: Cc1cc(Nc2nc(Nc3ccc(S(N)(=O)=O)cc3)ncc2F)ccc1OCc1ccccn1 [Compound I-176, N2-(4-Aminosulfonylphenyl)-5-fluoro-N4-[4-(2-pyridinyl)-3-methylmethyleneoxyphenyl]-2,4-pyrimidinediamine]
- IC50 [1, 4]: 259 nM
- IC50 (Primary human T-cells; [5]): 1690 nM

Compound: Cc1cc(Nc2nc(Nc3ccc(S(N)(=O)=O)cc3)ncc2F)cc(C)c1OCC(N)=O [Compound I-114, N4-(4-Aminocarbonylmethoxy-3,5-dimethyl)phenyl-N2-(4-aminosulfonyl)phenyl-5-fluoro-2,4-pyrimidinediamine]
- IC50 [1, 4]: 448 nM
- IC50 (Primary human T-cells; [5]): 6710 nM

Compound: Cc1cc(COc2ccc(Nc3nc(Nc4ccc(C)c(S(N)(=O)=O)c4)ncc3F)cn2)no1 [Compound V-1, N2-(3-Aminosulfonyl-4-methylphenyl)-5-fluoro-N4-[2-(5-methylisoxazol-3-yl)methyleneoxypyridin-5-yl]-2,4-pyrimidinediamine]
- IC50 [1, 6]: 2000 nM
- IC50 (Primary human T-cells; [7]): 9770 nM

Compound: NS(=O)(=O)c1cccc(Nc2ncc(F)c(Nc3ccc(OCc4ccncc4)cc3)n2)c1 [Compound I-193, N2-(3-Aminosulfonylphenyl)-5-fluoro-N4-[4-(4-pyridinyl)methyleneoxyphenyl]-2,4-pyrimidinediamine]
- IC50 [1, 4]: 38.2 nM
- IC50 (Primary human T-cells; [5]): 55.6 nM

Compound: N2-(3-Aminosulfonyl-4-chlorophenyl)-N4-(4-benzylphenyl)-5-fluoro-2,4-pyrimidinediamine [III-64]
- IC50 [1, 4]: 447 nM
- IC50 (Primary human T-cells; [5]): 5960 nM

Second part, led by results:

- IC50 [1, 2]: 157 nM
Compound: CN(C)C(=O)OCCc1ccc(Nc2nc(Nc3ccc(Cl)c(S(N)(=O)=O)c3)ncc2F)cc1 [III-58, N2-(3-Aminosulfonyl-4-chlorophenyl)-N4-{4-[2-(dimethylaminocarbonyloxy)ethyl]phenyl}-5-fluoro-2,4-pyrimidinediamine]
- IC50 (Primary human T-cells; [3]): 1260 nM

- IC50 [1, 4]: 270 nM
Compound: Cc1ccc(Nc2ncc(F)c(Nc3ccc(CNC(=O)C4CC4)cc3)n2)cc1S(N)(=O)=O [III-43, N2-(3-aminosulfonyl-4-methyl)phenyl-N4-(4-cyclopropylcarbonylaminomethyl)phenyl-5-fluoro-2,4-pyrimidinediamine]
- IC50 (Primary human T-cells; [5]): 898 nM

- IC50 [1, 6]: 624 nM
Compound: CCNC(=O)NCc1cccc(Nc2nc(Nc3ccc(C)c(S(N)(=O)=O)c3)ncc2F)c1 [III-118, N2-(3-aminosulfonyl-4-methyl)phenyl-N4-(3-ethylaminocarbonylaminomethyl)phenyl-5-fluoro-2,4-pyrimidinediamine]
- IC50 (Primary human T-cells; [7]): 2290 nM

- IC50 [1, 4]: 211 nM
Compound: Cc1ccc(Nc2ncc(F)c(Nc3ccc(CCC(N)=O)cc3)n2)cc1S(N)(=O)=O [III-47, N4-[4-(2-Aminocarboxylethylene)phenyl]-5-fluoro-N2-(4-methyl-3-aminosulfonylphenyl)-2,4-pyrimidinediamine]
- IC50 (Primary human T-cells; [5]): 366 nM

- IC50 [1, 8]: 739 nM
Compound: CC(C)(C)c1ccc(Nc2nc(Nc3ccc(Cl)c(S(N)(=O)=O)c3)ncc2F)cc1 [VI-43, N2-(3-Aminosulfonyl-4-chlorophenyl)-N4-(4-tert-butylphenyl)-5-fluoro-2,4-pyrimidinediamine]
- IC50 (Primary human T-cells; [9]): 6140 nM

- IC50 [1, 8]: 49.8 nM
Compound: COc1ccc(Nc2nc(Nc3ccc(OC)c(S(N)(=O)=O)c3)ncc2F)cc1Cl [VI-29, N2-(3-Aminosulfonyl-4-methoxyphenyl)-N4-(3-chloro-4-methoxyphenyl)-5-fluoro-2,4-pyrimidinediamine]
- IC50 (Primary human T-cells; [9]): 362 nM

- IC50 [1, 8]: 549 nM
Compound: C#CCNS(=O)(=O)c1ccc(Nc2nc(Nc3ccc(C)c(S(N)(=O)=O)c3)ncc2F)cc1 [VI-76, N2-(3-Aminosulfonyl-4-methylphenyl)-5-fluoro-N4-[4-(prop-2-ynylaminosulfonyl)phenyl]-2,4-pyrimidinediamine]
- IC50 (Primary human T-cells; [9]): 783 nM

- IC50 [1, 8]: 1080 nM
Compound: Cc1ccc(Nc2ncc(F)c(Nc3ccc(CCCCO)cc3)n2)cc1S(N)(=O)=O [VI-90, N2-(3-Aminosulfonyl-4-methylphenyl)-5-fluoro-N4-[4-(4-hydroxybutyl)phenyl]-2,4-pyrimidinediamine]
- IC50 (Primary human T-cells; [9]): 3970 nM

- IC50 [1, 4]: 394 nM
Compound: CCC(=O)NCc1ccc(Nc2nc(Nc3cccc(S(N)(=O)=O)c3)ncc2F)cc1 [III-36, N2-(3-aminosulfonyl)phenyl-N4-(4-ethylcarbonylaminomethyl)phenyl-5-fluoro-2,4-pyrimidinediamine]
- IC50 (Primary human T-cells; [5]): 382 nM

- IC50 [1, 4]: 198 nM
Compound: NS(=O)(=O)c1ccc(Nc2ncc(F)c(Nc3cccc(CNC(=O)C4CC4)c3)n2)cc1 [III-38, N2-(4-aminosulfonyl)phenyl-N4-(3-cyclopropylcarbonylaminomethyl)phenyl-5-fluoro-2,4-pyrimidinediamine]
- IC50 (Primary human T-cells; [5]): 1130 nM

- IC50 [1, 8]: 146 nM
Compound: COc1ccc(Nc2nc(Nc3ccc(Cl)c(S(=O)(=O)NC(C)=O)c3)ncc2F)cc1Cl [VI-12, N2-[3-(N-Acetyl)aminosulfonyl-4-chlorophenyl]-N4-(3-chloro-4-methoxyphenyl)-5-fluoro-2,4-pyrimidinediamine]
- IC50 (Primary human T-cells; [9]): 1310 nM

- IC50 [1, 6]: 315 nM
Compound: NS(=O)(=O)c1cc(Nc2ncc(F)c(Nc3ccc(OCC(F)(F)F)cc3)n2)ccc1Cl [VI-48, N2-(3-Aminosulfonyl-4-chlorophenyl)-5-fluoro-N4-(4-trifluoromethylmethyleneoxyphenyl)-2,4-pyrimidinediamine]
- IC50 (Primary human T-cells; [7]): 2240 nM

- IC50 [1, 4]: 443 nM
Compound: CCN(CC)CCNS(=O)(=O)c1ccc(Nc2ncc(F)c(Nc3ccc(Cn4ccnc4)cc3)n2)cc1 [III-84, N2-[4-(2-N,N-Diethylaminoethyl)aminosulfonylphenyl)-5-fluoro-N4-[4-(1-imidazolylmethyl)phenyl]-2,4-pyrimidinediamine]
- IC50 (Primary human T-cells; [5]): 1900 nM

- IC50 [1, 2]: 4400 nM
Compound: NC(=O)NCc1ccc(Nc2nc(Nc3ccc(S(N)(=O)=O)cc3)ncc2F)cc1 [III-32, N4-(4-Aminocarbonylaminomethylphenyl)-N2-(4-aminosulfonylphenyl)-5-fluoro-2,4-pyrimidinediamine]
- IC50 (Primary human T-cells; [3]): 3320 nM

- IC50 [1, 2]: 473 nM
Compound: Cc1ccc(Nc2ncc(F)c(Nc3ccc(CNC(N)=O)cc3)n2)cc1S(N)(=O)=O [III-34, N4-(4-Aminocarbonylaminomethylphenyl)-N2-(3-aminosulfonyl-4-methylphenyl)-5-fluoro-2,4-pyrimidinediamine]
- IC50 (Primary human T-cells; [3]): 381 nM

- IC50 [1, 8]: 374 nM
Compound: Cc1ccc(Nc2ncc(F)c(Nc3ccc(C(C)(C)C)cc3)n2)cc1S(N)(=O)=O [VI-36, N2-(3-Aminosulfonyl-4-methylphenyl)-N4-(4-tert-butylphenyl)-5-fluoro-2,4-pyrimidinediamine]
- IC50 (Primary human T-cells; [9]): 4500 nM

- IC50 [1, 8]: 812 nM
Compound: NS(=O)(=O)c1cccc(Nc2ncc(F)c(Nc3cccc4ncccc34)n2)c1 [VII-68, N2-(3-Aminosulfonylphenyl)-5-fluoro-N4-(quinolin-5-yl)-2,4-pyrimidinediamine]
- IC50 (Primary human T-cells; [9]): 1300 nM

- IC50 [1, 6]: 333 nM
Compound: Cc1ccc(Nc2ncc(F)c(Nc3ccc(OC(F)(F)F)cc3)n2)cc1S(N)(=O)=O [VI-32, N2-(3-aminosulfonyl-4-methylphenyl)-5-fluoro-N4-(4-trofluoromethoxyphenyl)-2,4-pyrimidinediamine]
- IC50 (Primary human T-cells; [7]): 1660 nM

- IC50 [1, 8]: 89.2 nM
Compound: COc1ccc(Nc2nc(Nc3ccc(Cl)c(S(N)(=O)=O)c3)ncc2F)cc1Cl [VI-2, N2-(3-Aminosulfonyl-4-chlorophenyl)-N4-(3-chloro-4-methoxyphenyl)-5-fluoro-2,4-pyrimidinediamine]
- IC50 (Primary human T-cells; [9]): 3570 nM
